We go through four compounds from EPA's ToxRefDB 2.

For data set [1], the system named is mouse. The note with it: Combined chronic toxicity/carcinogenicity, cd1, Oral, Feed, dose end: 104 week, group: systemic.
Data set [2] has as its system rabbit. The following applies: Prenatal developmental toxicity study, new zealand white, Oral, Gavage/Intubation, dose end: 18 GD.
Data set [3] relates to rat. The note with it: Subchronic oral toxicity in rodents, other, Feed, dose end: 13 week.
For data set [4], the system named is rat. The note with it: Prenatal developmental toxicity study, sprague dawley, Oral, Gavage/Intubation, dose end: 15 GD.
The subject of data set [5] is rat. The following applies: Multigenerational reproductive toxicity study, sprague dawley, Oral, Feed, dose end: 2 generation.
The test system of data set [6] is mouse. The note with it: Subchronic oral toxicity in rodents, cd1, Feed, dose end: 13 week, group: systemic.
Data set [7] has as its system rat. The note with it: Combined chronic toxicity/carcinogenicity, other, Oral, Gavage/Intubation, dose end: 104 week, group: systemic.
The subject of data set [8] is rat. The following applies: Subchronic oral toxicity in rodents, sprague-dawley, Feed, dose end: 13 week, group: systemic.
For data set [9], the system named is dog. The following applies: Chronic toxicity; beagle; Oral; Feed; dose end: 52 week; group: systemic; systemic / hematology / erythrocyte (rbc) count differential / erythrocyte (rbc) + systemic / hematology / hemoglobin (hgb) / hemoglobin (….
Data set [10] deals with mouse. The note with it: Carcinogenicity; cd1; Oral; [Not Specified]; dose end: 104 week; group: systemic; systemic / in life observation / body weight / body weight + systemic / in life observation / body weight / body weight gain.
Data set [11] deals with rabbit. The note with it: Prenatal developmental toxicity study, new zealand white, Oral, Gavage/Intubation, dose end: 19 GD.
Data set [12] concerns rat. The following applies: Combined chronic toxicity/carcinogenicity, sprague dawley, Oral, Feed, dose end: 24 month, group: systemic.
Data set [13] concerns dog. The note with it: Chronic toxicity; beagle; Oral; Feed; dose end: 52 week; group: systemic; systemic / hematology / erythrocyte (rbc) count differential / erythrocyte (rbc) + systemic / hematology / hemoglobin (hgb) / hemoglobin (…. This is another data set of the same source.
For data set [14], the system named is rat. The following applies: Prenatal developmental toxicity study, sprague dawley, Oral, Gavage/Intubation, dose end: 16 GD.
The subject of data set [15] is mouse. The note with it: Subchronic oral toxicity in rodents, b6c3f1, Gavage/Intubation, dose end: 13 week, group: systemic.
The subject of data set [16] is rat. The note with it: Subchronic oral toxicity in rodents, fischer, Gavage/Intubation, dose end: 13 week, group: systemic.
Data set [17] has as its system rat. The following applies: Combined chronic toxicity/carcinogenicity, sprague dawley, Dermal, Topical, dose end: 24 month, group: systemic.
The test system of data set [18] is rat. The note with it: Subchronic oral toxicity in rodents, sprague dawley, Feed, dose end: 14 week, group: systemic.
Where [19] appears, read: systemic / pathology gross / skin / lesion(s) (nos) + systemic / pathology microscopic / skin / inflammation.
[20] abbreviates: group: developmental, developmental / developmental malformation / bone / short.
Where [21] appears, read: group: developmental, developmental / developmental malformation / bone / short + developmental / developmental malformation / bone / [other].
[22] abbreviates: group: maternal, reproductive / offspring survival early / offspring survival early other / NOS + reproductive / reproductive performance / resorptions / ….
Setting [23] is: group: cholinesterase, cholinesterase / cholinesterase / cholinesterase / erythrocyte cholinesterase (che).
Where [24] appears, read: group: systemic, systemic / hematology / erythrocyte (rbc) count differential / erythrocyte (rbc) + systemic / hematology / hematocrit (hct) / hematocrit (….
The mark [25] stands for this setting: group: developmental, developmental / developmental malformation / bone / absent + developmental / developmental malformation / bone / delayed ossification + ….
Where [26] appears, read: group: maternal, systemic / in life observation / body weight / body weight gain.
[27] abbreviates: group: maternal, systemic / in life observation / body weight / body weight gain + systemic / in life observation / clinical signs / blood around eyes and ….
The mark [28] stands for this setting: group: offspring, systemic / in life observation / clinical signs / tremors + systemic / in life observation / body weight / litter weight + systemic / in ….
The mark [29] stands for this setting: group: offspring, systemic / in life observation / clinical signs / tremors + systemic / pathology gross / skin / ulcer.
Where [30] appears, read: group: parental, systemic / pathology gross / skin / ulcer.
Setting [31] is: systemic / organ weight / liver / relative to body weight.
[32] abbreviates: systemic / in life observation / body weight / body weight + systemic / in life observation / water consumption / water consumption + ….
[33] abbreviates: systemic / pathology microscopic / mammary gland / fibroadenoma.
Setting [34] is: systemic / organ weight / heart / relative to body weight.
[35] abbreviates: group: developmental, developmental / developmental malformation / aorta / double + developmental / developmental malformation / gallbladder / absent + ….
Setting [36] is: group: maternal, systemic / in life observation / body weight / body weight gain + reproductive / reproductive performance / aborted / aborted + systemic / ….
Where [37] appears, read: systemic / in life observation / clinical signs / hyperactivity.
Where [38] appears, read: systemic / in life observation / clinical signs / hyperactivity + systemic / in life observation / body weight / body weight + systemic / in….
[39] abbreviates: group: developmental, systemic / in life observation / body weight / fetal weight.
The mark [40] stands for this setting: group: maternal, systemic / in life observation / clinical signs / alopecia + systemic / in life observation / clinical signs / vaginal discharge.
The mark [41] stands for this setting: group: maternal, systemic / in life observation / clinical signs / alopecia + systemic / in life observation / clinical signs / vaginal discharge + systemic….
Where [42] appears, read: systemic / hematology / hemoglobin (hgb) / hemoglobin (hgb).
Where [43] appears, read: systemic / hematology / hemoglobin (hgb) / hemoglobin (hgb) + systemic / hematology / erythrocyte (rbc) count differential / erythrocyte (….
[44] abbreviates: systemic / clinical chemistry / urea nitrogen / urea nitrogen + systemic / hematology / neutrophils / neutrophils + systemic / in life ….
Where [45] appears, read: systemic / in life observation / body weight / body weight + systemic / in life observation / body weight / body weight gain + systemic / in….
[46] abbreviates: systemic / pathology microscopic / skin / hyperkeratosis.
Setting [47] is: systemic / pathology microscopic / skin / hyperkeratosis + systemic / pathology microscopic / skin / acanthosis + systemic / clinical ….
[48] abbreviates: systemic / in life observation / body weight / body weight + systemic / in life observation / body weight / body weight gain + systemic / ….

Some results are limits rather than exact numbers.

As for `CC(C)C(Nc1ccc(C(F)(F)F)cc1Cl)C(=O)OC(C#N)c1cccc(Oc2ccccc2)c1` (stereo unspecified) [Fluvalinate], the LEL in data set [1] (setting [19]) was found to be 10 mg/kg/day; in [2] (setting [20]) it was 125 mg/kg/day; in data set [2] (setting [22]) it was 125 mg/kg/day; in data set [3] (setting [23]) it was 18.8 mg/kg/day; in data set [3] (setting [24]) it was 1.82 mg/kg/day; in [4] (setting [25]) it was 50 mg/kg/day. Besides, the LEL in [4] (setting [26]) was found to be 10 mg/kg/day; in data set [5] (setting [28]), 9.53 mg/kg/day; in data set [5] (setting [30]) it was 9.53 mg/kg/day; in [6] (setting [31]), 1 mg/kg/day; in data set [7] (setting [33]) it was 0.25 mg/kg/day; in [8] (setting [34]), 0.3 mg/kg/day. Moreover, the NEL in data set [1] (setting [19]) is 2 mg/kg/day; in data set [2] (setting [21]) it was 25 mg/kg/day; in [2] (setting [22]), 25 mg/kg/day; in data set [3] (setting [23]), 7.7 mg/kg/day; in [3] (setting [24]), below 1.82 mg/kg/day; in data set [4] (setting [25]) it was 10 mg/kg/day. Also, the NEL was 2 mg/kg/day in [4] (setting [27]); 1.9 mg/kg/day in data set [5] (setting [29]); 1.9 mg/kg/day in data set [5] (setting [30]); below 1 mg/kg/day in [6] (setting [31]); below 0.25 mg/kg/day in data set [7] (setting [33]); below 0.3 mg/kg/day in data set [8] (setting [34]). Also, the LOAEL in data set [1] (systemic / pathology microscopic / kidney / inflammation) is 20 mg/kg/day; in data set [2] (setting [20]), 125 mg/kg/day; in data set [2] (setting [22]), 125 mg/kg/day; in data set [3] (setting [23]), above 116 mg/kg/day; in [3] (setting [24]), 1.82 mg/kg/day; in data set [4] (setting [25]), above 50 mg/kg/day. Moreover, the LOAEL in data set [4] (setting [26]) worked out at 10 mg/kg/day; in data set [5] (setting [28]) it was 9.53 mg/kg/day; in data set [5] (setting [30]) it was 9.53 mg/kg/day; in [6] (systemic / pathology gross / skin / lesion(s) (nos) + systemic / in life observation / body weight / body weight) it was 30 mg/kg/day; in [7] (setting [32]), 2.5 mg/kg/day; in data set [8] (systemic / hematology / erythrocyte (rbc) count differential / erythrocyte (rbc)), 30 mg/kg/day. Moreover, the NOAEL in [1] (systemic / pathology microscopic / kidney / inflammation + systemic / pathology gross / skin / lesion(s) (nos) + systemic / pathology …) was 10 mg/kg/day; in [2] (setting [21]), 25 mg/kg/day; in data set [2] (setting [22]) it was 25 mg/kg/day; in data set [3] (setting [23]), at least 116 mg/kg/day; in data set [3] (setting [24]) it was below 1.82 mg/kg/day; in data set [4] (setting [25]) it was at least 50 mg/kg/day. The NOAEL was 2 mg/kg/day in data set [4] (setting [27]); 1.9 mg/kg/day in [5] (setting [29]); 1.9 mg/kg/day in data set [5] (setting [30]); 3 mg/kg/day in data set [6] (systemic / pathology gross / skin / lesion(s) (nos) + systemic / hematology / erythrocyte (rbc) count differential / erythrocyte (rbc) + …); 1 mg/kg/day in data set [7] (setting [32]); 3 mg/kg/day in data set [8] (systemic / hematology / erythrocyte (rbc) count differential / erythrocyte (rbc) + systemic / clinical chemistry / albumin / albumin + …).

For `COc1nc(C)nc(NC(=O)NS(=O)(=O)c2ccccc2Cl)n1` [Chlorsulfuron], the LEL in data set [9] amounted to 254 mg/kg/day; in data set [10], 750 mg/kg/day; in data set [11] (setting [35]) it was 400 mg/kg/day; in data set [11] (setting [26]), 200 mg/kg/day; in data set [12] (setting [37]), 30 mg/kg/day; in [13] it was 254 mg/kg/day. Further, the results for the LEL in [14] (setting [39]) and in [14] (setting [40]) were 1500 mg/kg/day and 500 mg/kg/day, respectively. The LOAEL in data set [9] is 254 mg/kg/day; in [10] it was 750 mg/kg/day; in data set [11] (setting [35]) it was 400 mg/kg/day; in data set [11] (setting [26]), 200 mg/kg/day; in data set [12] (setting [37]), 30 mg/kg/day; in data set [13] it was 254 mg/kg/day. The LOAEL in [14] (setting [39]) amounted to 1500 mg/kg/day; in data set [14] (setting [40]) it was 500 mg/kg/day. Besides, the NEL was determined as 60.6 mg/kg/day in [9]; 108 mg/kg/day in [10]; 200 mg/kg/day in data set [11] (setting [35]); 75 mg/kg/day in data set [11] (setting [36]); 2 mg/kg/day in [12] (setting [38]); 60.6 mg/kg/day in data set [13]. For the same compound, the NEL came out at 500 mg/kg/day in data set [14] (setting [39]) and 165 mg/kg/day in data set [14] (setting [41]). Further, the NOAEL in data set [9] came to 60.6 mg/kg/day; in data set [10], 108 mg/kg/day; in data set [11] (setting [35]) it was 200 mg/kg/day; in [11] (setting [36]), 75 mg/kg/day; in [12] (setting [38]), 2 mg/kg/day; in [13], 60.6 mg/kg/day. Also, the results for the NOAEL in data set [14] (setting [39]) and in data set [14] (setting [41]) were 500 mg/kg/day and 165 mg/kg/day, respectively.

On to `O=C1OC(=O)c2c(Cl)c(Cl)c(Cl)c(Cl)c21` [Tetrachlorophthalic anhydride], for which, in data set [15] (setting [42]), the LEL is 94 mg/kg/day and the NEL is below 94 mg/kg/day. For the same compound, in [15] (setting [43]), the LOAEL is above 1500 mg/kg/day and the NOAEL was at least 1500 mg/kg/day. For the same compound, in [16] (setting [44]), the LOAEL was above 1500 mg/kg/day and the NOAEL was at least 1500 mg/kg/day. Further, in [16] (setting [45]), the LEL turned out to be 94 mg/kg/day and the NEL was below 94 mg/kg/day.

In the case of `CCC(C)OC(=O)N1CCCCC1CCO` (stereo unspecified) [Icaridin], in [17] (setting [46]), the LEL amounted to 50 mg/kg/day and the NEL was below 50 mg/kg/day. In data set [17] (setting [47]), the LOAEL is above 200 mg/kg/day and the NOAEL was at least 200 mg/kg/day. Besides, in data set [18] (setting [48]), the LOAEL amounted to 1030 mg/kg/day, the NEL was determined as 100 mg/kg/day and the NOAEL is 301 mg/kg/day. Besides, the LEL in data set [18] (systemic / organ weight / kidney / relative to body weight + systemic / clinical chemistry / alanine aminotransferase (alt/sgpt) / alanine …) amounted to 149 mg/kg/day.

As usually defined, the LOAEL is the lowest tested level that showed an adverse finding. For orientation: NOAEL means the highest tested level that showed no adverse finding.
